Results as given in US5236936A, “Pyridine compounds which are useful as angiotensin II receptor antagonists” (Imperial Chemical Industries PLC, priority 1991, dated 1993).

What was measured:
[1] = biological target: T1, AII receptors (guinea pig adrenal gland cell surface membrane fraction) (Cavia porcellus, UniProt Q9WV26); experiment: Test A: displacement of radiolabelled AII binding to guinea pig adrenal gland cell surface membranes; details: read-out: IC50 (concentration for 50% displacement of radiolabelled AII binding)
T1 construct: from tissue; host or cells: guinea pig adrenal gland, cell surface membrane fraction
T1 sequence (Q9WV26 1-359): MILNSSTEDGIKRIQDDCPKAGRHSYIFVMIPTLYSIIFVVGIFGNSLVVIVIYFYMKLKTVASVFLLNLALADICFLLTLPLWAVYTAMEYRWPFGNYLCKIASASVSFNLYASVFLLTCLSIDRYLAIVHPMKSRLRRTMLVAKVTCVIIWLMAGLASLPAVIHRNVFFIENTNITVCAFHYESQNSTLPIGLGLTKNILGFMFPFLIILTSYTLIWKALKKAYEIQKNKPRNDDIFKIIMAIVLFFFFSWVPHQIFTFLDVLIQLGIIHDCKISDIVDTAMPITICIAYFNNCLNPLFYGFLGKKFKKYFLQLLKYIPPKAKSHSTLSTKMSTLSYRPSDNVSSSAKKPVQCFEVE
Procedure: Test A: This in vitro procedure involves the incubation of the test compound initially at a concentration of 100 micromolar (or less) in a buffered mixture containing fixed concentrations of radiolabelled AII and a cell surface membrane fraction prepared from a suitable angiotensin target tissue. In this test, the source of cell surface membranes is the guinea pig adrenal gland which is well known to respond to AII. Interaction of the radiolabelled AII with its receptors (assessed as radiolabel bound to the particulate membrane fraction following removal of unbound radiolabel by a rapid filtration procedure such as is standard in such studies) is antagonized by compounds which also bind to the membrane receptor sites and the degree of antagonism (observed in the test as displacement of membrane-bound radioactivity) is determined readily by comparing the receptor-bound radioactivity in the presence of the test compound at the specified test concentration with a control value determined in the absence of the test compound. Using this procedure compounds showing at least 50% displacement of radiolabelled AII binding at a concentration of 10^-4 M are retested at lower concentrations to determine their potency. […]

[2] = tested on: angiotensin II-induced pressor responses; experiment: Test C: antagonism of angiotensin II-induced pressor responses in terminally-anaesthetised or conscious rats; assay type: in vivo; details: iv, rat, i.v. administration
Procedure: Test C: This in vivo test involves using terminally-anaesthetised or conscious rats in which an arterial catheter has been implanted under anaesthesia for the measurement of changes in blood pressure. The AII antagonistic effects of the test compound following oral or parenteral administration, are assessed against angiotensin II-induced pressor responses. To ensure that the effect is specific, the effect of the test compound on vasopressin-induced pressor responses may also be determined in the same preparation.

IC50 [1]: 5.5 nM
Compound: CCc1cc(OCc2ccc(-c3ccccc3-c3nnn[nH]3)cc2)c(-c2ccncc2)c(C)n1.Cl.Cl [Example 3, 6-ethyl-2-methyl-3-(4-pyridyl)-4-[(2'-(1H-tetrazol-5-yl)biphenyl-4-yl)methoxy]pyridine dihydrochloride]
ED50 [2]: 0.18 mg/kg
